Results: US11639345B2, “Methionine metabolic pathway inhibitors” (MIGAL—GALILEE RESEARCH INSTITUTE LTD., priority 2018, dated 2023)

Tests used:
[1] = system: E. coli lacking the endogenic MetB CGS gene, transformed to express the CGS from Arabidopsis; assay: Growth of engineered E. coli expressing Arabidopsis CGS in M9 minimal media, with and without methionine; type: cell-based; conditions: for E. coli Assay LE395 (0-5): score 0-5, growth of E. coli with Arabidopsis CGS gene in M9 minimal media; for E. coli specificity (MOA): score, growth with vs without external methionine (40 mg/L)
Description: In addition to the direct binding evaluation, specific assay to test the compounds activity and specificity were also developed. In this assay, E. coli cells, lacking the endogenic MetB CGS gene and transformed to express the CGS from Arabidopsis, were used. These cells were grown on M9 minimal media with and without external methionine supplemented to the cells, in the presence of the compounds of the embodiments. These selected compounds of the embodiments, capable of inhibiting the cell growth on M9, but incapable of affecting the cell growth when supplemented with methionine, were validated as methionine-pathway specific inhibitors.
In this assay, Methionine auxotroph E. coli mutant was transformed with PQE-30 vector containing the Arabidopsis CGS gene as previously described in Yael Hacham et al., Plant Physiol., February 2002, 128(2): 454-462. In order to test the effect of the small molecule inhibitors on the CGS and methionine pathway, growth curves of the E. coli in M9 minimal media with […] were measured with and without the addition of external methionine (40 mg/L) in the presence of variable compound concentrations. E. coli growth curves were measured by following the optical density at 600 nm of bacteria in 96 well-plate placed within Tecan M200 plate reader in orbital shaking mode at 37° C. The slope of each curve was estimated using the ‘linest’ function in Excel.

Tobacco CGS = target: T1, Tobacco CGS (Nicotiana tabacum, UniProt Q9ZPL5); assay: Micro Scale Thermophoresis (MST) direct binding to CGS; set-up: 6xHIS (N, cleaved yes); GB1 solubility tag (N, cleaved yes); made in house; host or cells: E. coli BL21; conditions: score 0-5; binding to labelled Tobacco CGS
T1 sequence (Q9ZPL5 79-540): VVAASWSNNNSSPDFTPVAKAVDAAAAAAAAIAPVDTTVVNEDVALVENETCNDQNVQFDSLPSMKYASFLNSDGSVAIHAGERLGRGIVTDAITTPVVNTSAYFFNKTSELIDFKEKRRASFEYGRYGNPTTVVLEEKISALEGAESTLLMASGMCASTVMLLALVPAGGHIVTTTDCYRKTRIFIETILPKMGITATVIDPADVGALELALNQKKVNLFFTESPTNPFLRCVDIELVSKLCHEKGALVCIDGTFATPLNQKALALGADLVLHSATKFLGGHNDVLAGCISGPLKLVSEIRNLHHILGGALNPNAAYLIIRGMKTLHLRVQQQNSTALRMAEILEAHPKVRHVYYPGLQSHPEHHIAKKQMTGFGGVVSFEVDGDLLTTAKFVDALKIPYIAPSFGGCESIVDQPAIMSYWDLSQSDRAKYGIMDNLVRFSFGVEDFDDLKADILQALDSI
Description: The direct binding of the compounds of the embodiments to the CGS was tested by Micro Scale Thermophoresis (MST). In the MST assay, the CGS protein was labelled with a fluorophore, the samples were heated, and changes in fluorescence were measured as a function of the ligand concentration. In the MST assay, similar to the expression and purification described above, the recombinant Tobacco CGS protein was expressed in E. coli BL21 cells and purified to homogeneity. For that particular purpose, the pET-11 vector containing the DNA sequence of Tobacco CGS with an N-terminus […] tag followed by a TEV-cleavable GB1 solubility tag was cloned and transformed into the bacteria cells. Cells were cultured to OD=0.8, and protein expression was induced by the addition of 1 mM IPTG. The cells were cultured for additional 16 hours temperature 25° C. Following cellular lysis, the soluble fraction was passed through the nickel column and the bound HIS-tagged protein was eluted by 300 mM imidazole. Then, the tags […] and GB1 were cleaved in dialysis o/n and the mixtures passed again through the nickel column to separate the CGS from the TEV and HIS-GB1 constructs. As a final step the CGS was run on S75 size exclusion chromatography. Thus, the MST assay was performed to measure the biding of the compounds to the CGS protein. For this purpose, the CGS was labelled with commercially available amine reactive fluorophore (Cat # MO-[…], NanoTemper) according to the manufacture instructions. The MST binding curves were then measured using the Monolith NT.115 apparatus by incubating the labelled protein with the indicated compounds in a dose-response manner.

Arabidopsis thaliana = Arabidopsis thaliana root growth inhibition; type: in vivo; conditions: 168 h, root length ratio vs DMSO control, 50 μM compound, lower values indicate shorter root, larger effect, read-out: Arabidopsis (relative to DMSO)
Description: Finally, FIGS. 7a-7o are the photos of the Arabidopsis thaliana plants and the inhibition of their roots growth by the compounds of the present invention. These experiments were conducted as follows. Seeds were washed with 70% ethanol for one minute and then with sterile water. Sterilisation was performed with 50% bleaching solution (3%) and 0.2% Triton x-100 for ten minutes followed by a five-time wash with sterile water. The seeds were placed in six well-plates with half Murashige and Skoog medium (MS; Duchefa, Haarlem, Netherlands), containing 1% sucrose (w/v), pH 5.8. The plates with Arabidopsis thaliana seeds were placed at 4° C. for two days and then transferred for seven days to growth chamber (22±2° C.) at day/light cycles of 16/8 h. The plates were placed vertically. In each plate, a control including 0.1% DMSO in the medium was added. The compounds of the present invention were tested for their herbicidal efficiency by diluting 1000 times a 50 mM stock in DMSO leading to a final concentration of 50 μM with 0.1% DMSO.
In Tables 1, 2 and 4 above, Arabidopsis root length was measured after addition of 50-μM compound compared with the negative control (DMSO) treatment. Length values indicate the ratio between non-treated plates ([…]) and the length after the addition of 50 uM of each compound. Lower values indicate shorter root length, and consequently, larger effect.

Roquette = Roquette assay spray; type: in vivo

Compound	E. coli Assay LE395 (0-5) [1]	E. coli specificity (MOA) [1]	MST Tobacco (0-5) (Tobacco CGS)	activity at 50 µM (Arabidopsis thaliana)	Roquette assay spray (twice average) (Roquette)	TEV (relative to DMSO) (TEV (relative to DMSO))	Roquette assay spray (single average) (Roquette)
COc1cccc(C(=O)Nc2cccc(-c3nc(C)cc(=O)[nH]3)c2)c1 [IML-11]	3	4	3	–	–	–	–
Cc1cc(=O)[nH]c(-c2cccc(NC(=O)c3ccc(O)cc3F)c2)n1 [IML-14]	3	4	3	–	–	–	–
Cc1cc(=O)[nH]c(-c2ccc(NC(=O)c3c(O)cccc3F)cc2)n1 [IML-15]	3	4	1	–	–	–	–
Cc1cc(=O)[nH]c(-c2cccc(NC(=O)c3ccccc3OC(F)F)c2)n1 [IML-22]	2	4	3	–	–	–	–
CCc1ccc(C(=O)Nc2cccc(-c3nc(C)cc(=O)[nH]3)c2)cc1 [IML-24]	–	–	–	35%	2.0	–	–
COc1ccnc(C(=O)Nc2cccc(-c3nc(C)cc(=O)[nH]3)c2)c1 [IML-62]	3	5	4	–	–	–	–
Cc1ccc(C(=O)Nc2cccc(-c3nc(C)cc(O)n3)c2)nc1 [IML-66]	3	4	3	–	–	–	–
COc1cccc(C(=O)Nc2cccc(-n3cc(C)nc3O)c2)c1 [IML-67]	3	4	–	–	–	–	–
COc1cccc(C(=O)Nc2cccc(-c3cc(C(F)(F)F)[nH]n3)c2)c1 [IML-70]	3	5	–	–	–	–	–
CCc1ccccc1NC(=O)CNC(=O)c1ccc2nn[nH]c2c1 [IML-102]	–	–	5	–	–	–	–
CC(=O)Nc1cccc(NC(=O)CNC(=O)c2ccc3nn[nH]c3c2)c1 [IML-110]	2	4	5	–	–	–	–
CCc1ccccc1NC(=O)CNC(=O)c1ccc2c(c1)nnn2CC [IML-112]	–	–	4	–	–	–	–
CCc1ccccc1NC(=O)CN(C)C(=O)c1ccc2nc[nH]c2c1 [IML-113]	–	–	5	–	–	–	–
O=C(O)C1CN(C(=O)c2ccn(-c3ccccc3)n2)c2ccccc21 (stereo not drawn) [IML-121]	2	4	–	9%	4.0	0.28	3.0
O=C(O)C1CN(C(=O)c2cc(-c3ccccc3)on2)c2ccccc21 (stereo not drawn) [IML-124]	2	5	–	0%	3.0	0.30	–
O=C(O)C1CN(C(=O)c2cc(-c3ccccc3)[nH]n2)c2ccccc21 (stereo not drawn) [IML-125]	–	–	–	45%	–	–	–
O=C(CNC(=O)c1ccc2[nH]ncc2c1)Nc1ccccc1 [IML-134]	3	4	3	67%	–	–	–

Compound	E. coli Assay LE395 (0-5) [1]	E. coli specificity (MOA) [1]	MST Tobacco (0-5) (Tobacco CGS)	activity at 50 µM (Arabidopsis thaliana)	Roquette assay spray (twice average) (Roquette)	TEV (relative to DMSO) (TEV (relative to DMSO))	Roquette assay spray (single average) (Roquette)
O=C(c1cc(-c2ccccc2)on1)N1CCc2cc([N+](=O)[O-])ccc21 [IML-161]	–	–	–	–	–	0.14	–
O=C(O)C1CN(C(=O)c2cnn(-c3ccccc3)c2)c2ccccc21 (stereo not drawn) [IML-162]	3	5	–	38%	–	0.20	2.0
O=C(O)C1Cc2ccccc2N1C(=O)c1cc(-c2ccccc2)on1 (stereo not drawn) [IML-163]	4	5	–	0%	4.0	0.31	–
O=C(O)CC1CN(C(=O)c2cc(-c3ccccc3)on2)c2ccccc21 (stereo not drawn) [IML-164]	–	–	–	4%	3.0	0.11	3.0
COc1cccc(-c2cc(C(=O)N3CC(C(=O)O)c4ccccc43)no2)c1 (stereo not drawn) [IML-166]	–	–	–	0%	4.0	0.06	2.0
O=C(O)C1CN(C(=O)c2cc(-c3ccccc3Cl)on2)c2ccccc21 (stereo not drawn) [IML-167]	–	–	–	0%	3.5	0.31	1.3
O=C(O)C1CN(C(=O)c2cc(-c3cccnc3)on2)c2ccccc21 (stereo not drawn) [IML-180]	1	5	3	58%	–	0.25	–
O=C(O)C1CN(C(=O)c2cc(-c3cccc(Cl)c3)on2)c2ccccc21 (stereo not drawn) [IML-181]	–	–	–	0%	–	0.22	0.5
O=C(c1ccc2[nH]ncc2c1)N1CCCC(Nc2ccccc2)C1 (stereo not drawn) [IML-203]	–	–	–	50%	–	–	–
O=C(c1ccc2[nH]ncc2c1)N1CCC(Nc2ccccc2)C1 (stereo not drawn) [IML-204]	–	–	–	35%	–	–	–
Cc1c(Cl)cccc1Nc1nc(-c2cccc(NC(=O)c3ccccc3)c2)cs1 [IML-211]	4	–	–	–	–	–	–
COc1ccc(Cc2nc(-c3cccc(NC(=O)c4ccccc4F)c3)no2)cc1 [IML-217]	3	5	2	–	–	–	–
COc1cccc(Nc2nc(-c3cccc(N4C(=O)c5ccccc5C4=O)c3)cs2)c1 [IML-218]	3	5	–	–	–	–	–
O=C(Nc1cccc(-c2cn(Cc3ccccc3)nn2)c1)c1cc(C(F)(F)F)ccn1 [IML-223]	5	5	–	–	–	–	–
O=C(Nc1cccc(-c2cn(Cc3ccccc3)nn2)c1)c1cccc(Cl)c1 [IML-232]	–	–	–	68%	4.0	–	1.0
CCc1nc(-c2cncc(NC(=O)c3cccc(Cl)c3)c2)no1 [IML-234]	–	–	–	–	3.0	0.75	1.5
COc1cccc(-c2cc(C(=O)N3C[C@H](C(=O)O)c4ccccc43)no2)c1 [IML-238]	–	–	–	3%	2.0	0.29	–
